# Assays:
# [1] = Parallax analysis of tryptophan penetration depth; format: physicochemical; details: for F1/F2 ± S.D.: ratio of tryptophan fluorescence intensity (357 nm) with shallow (6,7-dibromo-PC, F1) and deep (9,10-dibromo-PC, F2) quencher, 200 µg/ml liposomes, at least triplicate
# Protocol: The hydrocarbon penetration depth of tryptophans spaced throughout synthetic peptides corresponding to SHP-1 or SHP-3 (Table S1) was determined by parallax analysis with brominated phosphatidylcholine liposomes. Large unilamellar liposomes composed of egg phosphatidylcholine and 10 mol % 1-palmitoyl-2-(6,7-dibromo)stearoyl-sn-glycero-3-phosphocholine (shallow quencher) or 1-palmitoyl-2-(9,10-dibromo)stearoyl-sn-glycero-3-phosphocholine (deep quencher) were constructed by hydration of a thin dry lipid film with phosphate buffered saline. Resulting multilamellar liposomes were made unilameller via extrusion through polycarbonate filters with 0.1 µm pores. Peptides (500 nM) were incubated with 200 µg/ml liposomes in phosphate buffered saline at 37°C for 22 h. Tryptophan fluorescence at 357 nm was measured from at least triplicate trials in the PerkinElmer Life Sciences LS55 spectrofluorometer and an excitation wavelength of 280 nm for SHP-1 and 290 nm for SHP-2, 10 nm excitation and 9 nm emission slit widths. The distance of tryptophans from the bilayer center (ZCF) is calculated from the equation [12]: [drawing 1] Where LC1 is the distance from the center of the bilayer to the shallow quencher, in this case 10.8 Å for 6,7-dibromo-PC [25], F1 is the intensity of tryptophan in the presence of the shallow quencher and F2 is the tryptophan intensity in the presence of the deep quencher, C is the mole fraction of quencher divided by the area of individual phospholipid (70 Å^2), and L21 is the difference in the depth of the two quenchers (2.7 Å). The hydrocarbon insertion depth of tryptophans is then given by one half the bilayer thickness, 29 Å [25], minus ZCF.
# BSF T. b. brucei [2] = experiment: 2 h killing assay, BSF T. b. brucei; format: cell-based, Trypanosoma brucei brucei; details: light microscopy (Fig. 1d, Figure S2a)
# Live BSF T. b. brucei = experiment: Trypanosome motility scoring by DIC microscopy; format: cell-based, Trypanosoma brucei brucei
# Protocol: All images and videos were acquired with an Axio Observer Z1 equipped with an AxioCam MRm controlled by AxioVision 4.6 software. Videos were acquired with live cells at a density of 1×10^7 cells/mL in HMI 9 media with 10 % fetal bovine serum, incubated with 40 µM SHP at 37°C. Trypanosomes were visualized at magnification 63 × and videos were recorded with 100-ms acquisition times. The motility of BSF trypanosomes was scored directly or from video playback. Trypanosome motility was classified as normal, hyperactive or constricted as described previously. An example of a trypanosome scored as normal is shown in Movie S1. […] Data in figure 2D is shown as the average of at least duplicate trials with standard deviations.
# BSF T. b. brucei [3] = experiment: Flow cytometry peptide binding; format: cell-based, Trypanosoma brucei brucei; details: 8 µM FITC-labeled peptide, 3×10^6 cells/ml, HMI 9 plus 10 % fetal bovine serum, 25 °C, 50,000 cells counted immediately, flow cytometry (Figure S1)
# Protocol: SHP binding to BSF T. b. brucei. FITC-labeled SHP-1 (blue ? ) and SHP-3 (green ? ) were assayed for binding to BSF T. b. brucei via flow cytometry (no peptide, red ? ) . Trypanosomes were adjusted to 3 × 10^6 cells/ml in HMI 9 media with 10 % fetal bovine serum, 8 µM FITC-SHP-1 or FITC-SHP-3 was added and 50,000 cells were immediately counted.
# Flow Cytometry – Peptide binding to BSF T. b. brucei was monitored by flow cytometry as described previously. Binding assays were performed with 3 × 10^6 cells/ml in HMI 9 plus 10 % fetal bovine serum at 25 °C. FITC-labeled SHP-1 or SHP-3 was added to a final concentration of 8 µM and 50,000 cells were immediately counted on a CyAn ADP flow cytometer (Dako). Data were analyzed with FlowJo software (TreeStar Inc.).
# [4] = Calcein release (membrane interaction) assay; format: physicochemical; details: unilamellar egg phosphatidylcholine liposomes with 30 mM calcein, PBS, 0.2-4 µM peptide, fluorescence 484/513 nm (Figure S2b, c)
# Protocol: Trypanosome killing and membrane interaction with SHP tryptophan variants. […] (b) The ability of SHP-1 tryptophan variants, 1 µM SHP-1ΔW1 (orange ? ), 1 µM SHP-1ΔW8 (green ? ), 0.2 µM SHP-1 (blue ? ) and 0.2 µM SHP-1ΔW18 (red ? ), and (c) SHP-3 tryptophan variants, 1 µM SHP-3ΔW1 (orange ? ), 1 µM SHP-3 (blue ? ), 1 µM SHP-3ΔW13 (red ? ) and 4 µM SHP-3ΔW20 (green ? ), to interact with lipid bilayers was determined by monitoring the release of entrapped calcein from unilamellar egg phosphatidylcholine liposomes.
# Calcein Release Assays – Membrane permeabilization assays were conducted as described in detail previously. Unilamellar liposomes were constructed as described above but with 30 mM calcein in 10 mM Hepes as the hydration buffer. Untrapped dye was removed by gel filtration (Sephacryl S-300 HR, GE Healthcare). Liposomes were diluted 1:1000 into phosphate buffered saline, and calcein fluorescence was monitored at 513 nm when excited at 484 nm. The percent calcein release was calculated relative to the 100% fluorescence intensity, achieved by the addition of 0.01% Triton X-100.
# [5] = 500 nM peptide, PBS, 37°C, 22 h
# [6] = 40 µM SHP, 37°C, 1×10^7 cells/mL, HMI 9 with 10 % fetal bovine serum, DIC microscopy, at least duplicate (Fig. 2d)
sequence,measurement,setting,value
"FHQIGAALLYFYGIILNSIW [SHP-3∆W20, SHP-3 tryptophan variant, Trp at position 20]",F1/F2 ± S.D.,[1]; [5],1.1620 ± 0.3194
"FHQIGAALLYFYWIILNSIY [SHP-3∆W13, SHP-3 tryptophan variant, Trp at position 13]",F1/F2 ± S.D.,[1]; [5],0.9912 ± 0.0787
"FHQIWAALLYFYGIILNSIY [SHP-3, non-trypanocidal small hydrophobic peptide derived from an apolipoprotein]",trypanocidal activity against BSF T. b. brucei,BSF T. b. brucei [2],no trypanocidal activity was detected
same,constriction of motility following hyperactivation,Live BSF T. b. brucei; [6],subsequent constriction does not occur
same,hyperactivation of motility,Live BSF T. b. brucei; [6],some hyperactivation
same,motility approximately 30 sec after addition,"Live BSF T. b. brucei; 40 µM peptide, DIC video microscopy, representative cells (Movies S2, S3)",hyperactivated motility
same,"insertion depth of native tryptophan, position 5","[1]; 500 nM peptide, 200 µg/ml brominated egg PC liposomes, PBS, 37°C, 22 h",approximately 1.6 Å
same,quenching of N-terminal tryptophan (position 1),"[1]; Trp-substituted variant W1, suggests it does not intercalate into the hydrocarbon region",inefficiently quenched
same,insertion depth of tryptophan at position 13,"[1]; Trp-substituted variant W13, 500 nM peptide, 200 µg/ml brominated egg PC liposomes, PBS, 37°C, 22 h",approximately 4.7 Å
same,insertion depth of C-terminal tryptophan (position 20),"[1]; Trp-substituted variant W20, 500 nM peptide, 200 µg/ml brominated egg PC liposomes, PBS, 37°C, 22 h",approximately 11.2 Å
same,F1/F2 ± S.D.,[1]; [5],0.9202 ± 0.1260
same,binding to BSF T. brucei,BSF T. b. brucei [3],binding to BSF T. brucei
same,membrane interaction (release of entrapped calcein from liposomes),[4],exhibit membrane interaction
"SDLGAVISLLLGGRQLFW [SHP-1∆W18, SHP-1 tryptophan variant, Trp at position 18]",F1/F2 ± S.D.,[1]; [5],0.9285 ± 0.1557
"SDLGAVIWLLLGGRQLFA [SHP-1∆W8, SHP-1 tryptophan variant, Trp at position 8]",F1/F2 ± S.D.,[1]; [5],0.9767 ± 0.0717
"WDLGAVISLLLGGRQLFA [SHP-1∆W1, SHP-1 tryptophan variant, Trp at position 1]",F1/F2 ± S.D.,[1]; [5],0.8897 ± 0.1112

# Source: PMC3436892, “Novel African Trypanocidal Agents: Membrane Rigidifying Peptides” (PLoS ONE, 2012)
